# In US20230277553A1, “THERAPEUTIC COMPOSITION OF CURE-PRO COMPOUNDS FOR TARGETED DEGRADATION OF BET DOMAIN PROTEINS, AND METHODS OF MAKING AND USAGE” (CORNELL UNIVERSITY, priority 2020, published 2023):
# Entries after “also recorded” stand apart in the source; their conditions may differ.
# Key:
# Type in all cases: cell-based
# caspase 3/7 [1] = assay: Caspase-Glo 3/7 assay, Namalwa cells
# Procedure: (§1) Caspase-glo® assay (Promega) was conducted following the manufacturer's recommendations. Cells were seeded at a density of 5000 cells/well in a white 96 well plates (Corning, #3917) in a total volume of 100 μl with respective monomers, combinations of BRD ligands together with E3 ligase ligands or vehicle control treatment. After a 24 h incubation, 100 μl of the […] substrate was added per well and luminescence was read on a Spectramax M5 (Molecular Devices).
# Namalwa cells (5×104) were treated for 24 hours with the compounds solubilized in DMSO. FIG. 57 is a bar graph depiction of fold increase of apoptosis assessed via caspase 3/7 activity using the Caspase-glo assay (Promega) described above.
# (§2) Molm-13 (FIG. 76A) or Namalwa (FIG. 76B) cells (5×10^4) were treated for 24 hours with the compounds solubilized in DMSO in white 96 well plates (10 nM-10 μM solubilized in DMSO). FIG. 76 is a bar graph depiction of fold increase of apoptosis assessed via caspase 3/7 activity using the Caspase-glo assay (Promega) described above.
# caspase 3/7 [2] = assay: Caspase-Glo 3/7 assay, Molm-13 cells
# Procedure: as §1, §2
# Molm-13 cells = assay: CellTiter-Glo cell viability, Molm-13 cells; settings: Molm-13, 24 and 72 h
# Procedure: CellTiter-Glo® 2.0 Cell Viability Assay (Promega) was carried out following the manufacturer's recommendations. Cells were seeded at a density of 1000 cells/well in a white 96 well plates (Corning, #3917) in a total volume of 100 μl with respective monomers, combinations of BRD ligands together with E3 ligase ligands or vehicle control treatment. After a 72 h incubation, 100 ul of the CellTiter-Glo® substrate was added per well and luminescence was read on a Spectramax M5 (Molecular Devices). Dose-response curves were generated using Graphpad Prism software.
# Molm-13 cells (1×10^4) were treated for 24 (FIG. 77A) or 72 (FIG. 77B) hours were treated in white 96 well plates with the compounds (10 nM-10 μM solubilized in DMSO). After indicated times cell viability was assessed using the CellTiter-Glo® Luminescent Cell Viability Assay (Promega) and the signal detected on a SpectraMax M5 (Molecular Devices).
# BRD4 [3] = target: T1, BRD4 (Homo sapiens, UniProt O60885); assay: CURE-PRO-mediated BRD4 degradation with VHL ligands, Western blot, MCF7 cells; parameters: endogenous in cells; settings: MCF7, 24 h
# Procedure: (§3) All cell lines were purchased from ATCC or DSMZ and grown at 37° C. with 5% CO2. Human HeLa cells were cultured in complete growth medium (Dulbecco's modified Eagle's medium (DMEM) supplemented with 10% FBS); MCF7 cells were cultured in complete growth medium (Dulbecco's modified Eagle's medium (DMEM) supplemented with 10% FBS and 0.01 mg/ml human recombinant insulin (Sigma Aldrich); Namalwa and MOLM-13 cells were cultured in complete growth medium (RPMI 1640 medium supplemented with 10% FBS); MV-4-11 were cultured in complete growth medium (Iscove's Modified Dulbecco's medium, supplemented with 10% FBS); HCT116 cells were cultured in complete growth medium (McCoy's 5a Medium supplemented with 10% FBS). For cellular degradation of BRD4 studies, cells were seeded in a 12-well plate at 70-80% confluency, allowed to attach overnight, and incubated with the indicated compounds for the indicated time. When indicated, a 15-minute pretreatment with 10 μM pomalidomide, 10 μM VHL298, 10 μM Nutlin3a, 1 μM MG-132 or 1 μM Carfilzomib was performed before the addition of CURE-PROs. For washout studies, after CURE-PRO treatment, media was aspirated and incubated with complete medium for the indicated time before lysis.
# HeLa, MCF7, or HCT116 cells (2.5-3×10^6) were treated for 24 hours with the indicated compounds solubilized in DMSO. The cells were washed in ice-cold PBS and were then lysed in RIPA lysis buffer (150 mM NaCl, 5 mM EDTA, 1% NP-40, 0.5% sodium deoxycholate, 0.1% SDS, 50 mM Tris, pH 8.0.) with Roche protease inhibitor complete cocktail and phosphatase inhibitors (10 mM sodium fluoride, 10 mM sodium pyrophosphate, 1 mM sodium orthovanadate and 20 mM β-glycerophosphate). The total protein concentrations were determined by Bradford Protein Assay and 10-20 μg of protein was loaded onto 4-15% Tris-Glycine gradient gels (Biorad). After standard gel electrophoresis, the separated proteins were transferred to PVDF membrane by wet transfer. The immunoblots were then blocked for 1 hour in 5% skim milk in TBST or 5% BSA in TBST, according to manufacturer's instructions, before an overnight incubation at 4° C. with indicated antibodies and membranes. Membranes were then incubated with the appropriate horseradish peroxidase-conjugated secondary antibodies (1:5,000 dilution) for 1 h at room temperature and the bands were visualized using the Clarity Max Western ECL Substrate (Biorad) and the ChemiDoc Imaging System (Biorad). Signal was detected with ECL Western Blotting Substrate (Pierce) and X-ray film processed with a Konica SRX-101 X-ray film processor or captured by Bio-Rad's Chemidoc Imaging system.
# MCF7 cells (3×10^6) were treated for 24 h with the compounds solubilized in DMSO. Compounds were added at 100 nM-10 μM. […]
# BRD4 [4] = target: T1, BRD4; assay: CURE-PRO-mediated BRD4 degradation with VHL ligands, WES (ProteinSimple), MCF7 cells; parameters: endogenous in cells
# Procedure: as §3
# WES Simple analysis was performed on WES system (ProteinSimple-Biotechne) according to the manufacturer's instructions. Total protein concentrations of cell lysates were determined by the Pierce BCA kit (Thermo Fisher). 3 μL of 0.3 μg/μL of the protein lysate was loaded onto a 12- to 230-kDa WES assay plate (ProteinSimple) where 300 nL sample was withdrawn through a capillary, subjected to electrophoretic separation of proteins by size, and followed by the simultaneous, HRP-based detection of proteins using the Anti-Rabbit Detection Module (Proteinsimple: #DM-001). The electropherograms were checked then the automatic peak detection was manually corrected if it was required.
# MCF7 cells (3×10^6) were treated for 4-24 hours continually (FIG. 72), or treated for 4h, washed and incubated for a further 4-24 h with the compounds solubilized in DMSO. Compounds were added at 10 μM each. Cells were washed, lysed, and clarified by centrifugation. The total protein concentration was quantified by the BCA method (ThermoFisher Sciences). Standardized protein samples were electrophoresed and imaged as described in the WES Proteinsimple section above. FIG. 69 depicts the CURE-PRO-mediated BRD4 degradation for the BRD-E50 monomer, and VHL ligand, 8305.
# MCF7 cells (3×10^6) were treated for 24 hours with the compounds solubilized in DMSO. CURE-PRO monomers were added at 10 μM each and the proteasomal inhibitors at 1 μM. Standardized protein samples were electrophoresed and imaged as described in the WES Proteinsimple section above. FIGS. 73 and 75 depicts the dependence of the proteasome for CURE-PRO-mediated BRD4 degradation.
# MCF7 cells (3×10^6) were treated for 24 hours with the compounds solubilized in DMSO. CURE-PRO monomers were added at 10 μM. FIG. 74 depicts the CURE-PRO-mediated BRD4 degradation for the BRD-E50 monomer, and VHL ligand, 8305 combined in a 1:1 ratio after 24 h.
# BRD4 [5] = target: T1, BRD4; assay: Summary of BRD4 degradation by CURE-PRO pairs, estimated from Western Blot or WES (Proteinsimple); parameters: endogenous in cells; settings: Table 3; aromatic 1,2-diol-containing VHL ligand, second drawing (8305)
# Text: A black check mark indicates efficacy of 30% to 70% or higher protein degradation.
compound,measurement,setting,value
"CCNC(=O)C[C@@H]1N=C(c2ccc(Cl)cc2)c2cc(B(O)O)ccc2-n2c(C)nnc21 [BRD-E50, ((4S)-6-(4-chlorophenyl)-4-(2-(ethylamino)-2-oxoethyl)-1-methyl-4H-benzo[f][1,2,4]triazolo[4,3-a][1,4]diazepin-8-yl)boronic acid]","Caspase activity, co-treatment with VHL298",caspase 3/7 [1],does not increase caspase activity
same,"Caspase 3/7 activation, co-dosed with VHL ligand 8305","caspase 3/7 [1]; 24 hours, 1:1 with 8305, 10 nM-10 μM",marked caspase activation; also recorded: demonstrates activation of caspase 3/7
same,"Caspase activity, co-treatment with VHL298",caspase 3/7 [2]; MOLM13,does not increase caspase activity
same,"Caspase 3/7 activation, co-dosed with VHL ligand 8305","caspase 3/7 [2]; Molm-13, 24 hours, 1:1 with 8305, 10 nM-10 μM",marked caspase activation; also recorded: demonstrates activation of caspase 3/7
same,"Cell viability, co-treatment with VHL298",Molm-13 cells,decreases levels of cell viability to similar levels of BRD-E50 treatment alone
same,"Loss of cell viability, co-dosed with VHL ligand 8305","Molm-13 cells; 1:1 with 8305, 10 nM-10 μM",greater loss of cell viability; also recorded: marked loss in cell viability
same,"BRD4 degradation, with VHL ligand 8304 (Western blot)","BRD4 [3]; 1:1 with 8304, 1-10 μM",but not when VHL ligand 8304 is co-incubated; also recorded: no degradation is noted
same,"BRD4 degradation, with VHL ligand 8305 (Western blot)","BRD4 [3]; 1:1 with 8305, 100 nM-10 μM",there is degradation of BRD4; also recorded: marked BRD4 degradation
same,"BRD4 degradation, monomer alone (WES)","BRD4 [4]; MCF7, 10 μM",no degradation of BRD4
same,"BRD4 degradation, with VHL ligand 8304 (WES)","BRD4 [4]; MCF7, 10 μM each",No degradation is noted
same,"BRD4 degradation, with VHL ligand 8305 (WES)","BRD4 [4]; MCF7, 10 μM each, 1:1 with 8305, 4-24 h, with washout where stated","directs degradation of BRD4 as early as 4 h, with sustained degradation 24 h after wash out; also recorded: marked BRD4 degradation after 4h with sustained degradation for up to 8h after drugs are washed out"
same,BRD4 degradation with 8305 after VHL298 preincubation,"BRD4 [4]; MCF7, 24 h, 10 μM",No degradation is noted
same,Degradation of BRD4 in combination with VHL ligand [drawing 397],BRD4 [5],✓ (A black check mark indicates efficacy of 30% to 70% or higher protein degradation)
